Patent US11964962B2, “Substituted pyridazinone compound and use thereof” (SHANDONG FIRST MEDICAL UNIVERSITY & SHANDONG ACADEMY OF …, priority 2020, dated 2024)

How the values were obtained:
L929 mouse fibroblasts = experiment: Cytotoxicity in normal cell line L929 (CCK-8 proliferation assay); type: cell-based; conditions: 48 h treatment, CCK-8, absorbance 450 nm, read-out: IC50 for proliferation of L929 cell lines
Method: Concentration of L929 mouse fibroblasts was adjusted to 4×10^5 cells/mL. The cells were seeded in a 96 well plate with […] per well. Wells not supplied with the cells (blank group) were provided. The cells were cultivated on the plate and were allowed to adhere overnight. Then, cell culture supernatants were collected, and 200 μL of test compound at various concentrations were added to the corresponding cell culture supernatants. Control and compound-treated cell culture supernatants were included in each experiment with triplicate wells for each experimental group, and were cultivated for a further 48 h. Then, the resulting cell culture supernatants were again collected, and fresh medium supplemented with 10% CCK-8 solution was added thereto. Incubation for an additional 3 h was carried out. Thereafter, the absorbance of the medium was measured at 450 nm wavelength, and the inhibitory rate of cell proliferation by test compound was calculated according to the equation below: R (%)=1−(Aexperiment−Ablank)/(Acontrol−Ablank)

THRα = target: T1, THRα (Homo sapiens, UniProt P10827); experiment: THRα agonist activity, fluorescence ratio 665 nm/615 nm with EE-RxRα and biotin-GRIP; type: biochemical; conditions: incubated overnight at 4° C.
T1 construct: GST
T1 sequence (P10827 1-410 isoform P10827-2): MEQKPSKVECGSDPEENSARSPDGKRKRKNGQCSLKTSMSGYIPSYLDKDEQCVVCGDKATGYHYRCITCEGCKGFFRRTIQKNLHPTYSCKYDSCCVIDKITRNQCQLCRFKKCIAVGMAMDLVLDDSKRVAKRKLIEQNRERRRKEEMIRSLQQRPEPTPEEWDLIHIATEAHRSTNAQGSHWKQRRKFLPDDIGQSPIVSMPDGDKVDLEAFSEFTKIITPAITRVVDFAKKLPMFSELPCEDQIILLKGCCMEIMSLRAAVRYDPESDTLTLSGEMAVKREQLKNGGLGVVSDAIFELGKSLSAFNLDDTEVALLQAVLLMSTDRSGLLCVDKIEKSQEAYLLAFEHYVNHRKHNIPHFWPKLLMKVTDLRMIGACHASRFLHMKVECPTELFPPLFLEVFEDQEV
T1 sequence (P19793 225-462 partner limits assumed): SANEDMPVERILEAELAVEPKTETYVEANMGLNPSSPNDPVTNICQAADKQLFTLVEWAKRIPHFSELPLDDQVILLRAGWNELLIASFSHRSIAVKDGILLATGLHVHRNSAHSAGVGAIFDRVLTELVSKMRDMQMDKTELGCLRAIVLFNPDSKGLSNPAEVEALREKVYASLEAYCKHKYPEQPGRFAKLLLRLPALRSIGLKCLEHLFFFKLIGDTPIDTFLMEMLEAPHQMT
T1 sequence (Q15596 679-703 partner limits assumed): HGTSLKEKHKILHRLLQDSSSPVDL
Method: (§1) Test compound was dissolved and serially diluted in dimethyl sulfoxide (DMSO) with a final compound concentration of 60 mM. […] Buffer 1 was employed again to prepare EE-RxRα at the same concentrations as those of THRα and THRβ, respectively. Buffer 1+5% DMSO was employed to prepare biotin-GRIP (THRα: […], THRβ: 100 nM). Buffer 2 (50 mM Tris, pH 7.4, 100 mM NaCl, and 0.2 mg/mL BSA) was employed to prepare a mixed solution of 2×Eu-anti-GST and 2×streptavidin-d2. 5 μL of the THRα (THRβ) solution+5 μL of EE-RxRα+2.5 μL of the DMSO solution of test compound+2.5 μL of biotin-GRIP+5 μL of the mixed solution of 2×Eu-anti-GST and 2×streptavidin-d2 was employed as the reaction system, and incubated overnight at 4° C.

THRβ = target: T2, THRβ (Homo sapiens, UniProt P10828); experiment: THRβ agonist activity, fluorescence ratio 665 nm/615 nm with EE-RxRα and biotin-GRIP; type: biochemical; conditions: incubated overnight at 4° C.
T2 construct: GST
T2 sequence (P10828 1-461): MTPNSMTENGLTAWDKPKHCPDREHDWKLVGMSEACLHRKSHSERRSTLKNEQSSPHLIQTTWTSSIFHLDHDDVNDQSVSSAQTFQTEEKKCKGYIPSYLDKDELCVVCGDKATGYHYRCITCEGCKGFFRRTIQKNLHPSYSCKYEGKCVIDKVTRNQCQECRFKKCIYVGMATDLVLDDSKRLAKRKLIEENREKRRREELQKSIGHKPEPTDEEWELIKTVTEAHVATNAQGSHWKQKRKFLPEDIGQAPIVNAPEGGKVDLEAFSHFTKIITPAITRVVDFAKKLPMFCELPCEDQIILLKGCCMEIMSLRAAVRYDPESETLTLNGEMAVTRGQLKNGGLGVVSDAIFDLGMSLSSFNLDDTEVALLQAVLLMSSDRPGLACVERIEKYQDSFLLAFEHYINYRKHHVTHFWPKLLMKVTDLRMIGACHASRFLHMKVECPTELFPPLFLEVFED
T2 sequence (P19793 225-462 partner limits assumed): T1 sequence (P19793 225-462 partner limits assumed)
T2 sequence (Q15596 679-703 partner limits assumed): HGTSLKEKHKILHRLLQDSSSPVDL
Method: as §1

| EC50 (THRα) [µM] | EC50 (THRβ) [µM] | Compound | IC50 (L929 mouse fibroblasts) [µM] |
| --- | --- | --- | --- |
| 4.76 | 0.642 | N#Cc1nn(-c2ccc(Oc3cc(CC4CCCC4)c(=O)[nH]n3)c(Br)c2)c(=O)[nH]c1=O [Compound 9] | > 50 |
| 13.8 | 4.16 | CC(C)c1cc(=O)[nH]nc1Oc1ccc(-n2nc(C#N)c(=O)[nH]c2=O)c(Cl)c1 [Compound 36] | > 50 |
| 2.07 | 0.055 | CC(C)c1cc(Oc2ccc(-n3nc(C#N)c(=O)[nH]c3=O)cc2Cl)n[nH]c1=O [Compound 26] | > 50 |
| 0.014 | 3.85 | N#Cc1nn(-c2cc(Cl)c(Oc3cc(C4CCCC4)c(=O)[nH]n3)cc2Cl)c(=O)[nH]c1=O [Compound 34] | > 50 |
| 0.883 | 4.9 | COc1cc(-n2nc(C#N)c(=O)[nH]c2=O)ccc1Oc1cc(C(C)(C)C)c(=O)[nH]n1 [Compound 5] | > 50 |
| 0.126 | 0.101 | CC(C)(C)c1cc(Oc2c(Cl)cc(-n3nc(C#N)c(=O)[nH]c3=O)cc2Cl)n[nH]c1=O [Compound 1, 2-(4-((5-(tert-butyl)-6-oxo-1,6-dihydropyridazin-3-yl)oxy)-3,5-dichlorophenyl)-3,5-dioxo-2,3,4,5-tetrahydro-1,2,4-triazine-6-carbonitrile] | > 50 |
| 1.81 | 0.0257 | N#Cc1cn(-c2cc(Cl)c(Oc3cc(C4CCC4)c(=O)[nH]n3)c(Cl)c2)c(=O)[nH]c1=O [Compound 42, 1-(3,5-dichloro-4-((5-cyclobutyl-6-oxo-1,6-dihydropyridazin-3-yl)oxy)phenyl)-2,4-dioxo-1,2,3,4-tetrahydropyrimidine-5-carbonitrile] | > 50 |
| 5.38 | 0.021 | CC(C)(C)c1cc(Oc2ccc(-n3nc(C#N)c(=O)[nH]c3=O)cc2F)n[nH]c1=O [Compound 2, 2-(4-((5-(tert-butyl)-6-oxo-1,6-dihydropyridazin-3-yl)oxy)-3-fluorophenyl)-3,5-dioxo-2,3,4,5-tetrahydro-1,2,4-triazine-6-carbonitrile] | > 50 |
|  | 0.117 | CC(C)c1cc(Oc2cc(Cl)c(-n3nc(C#N)c(=O)[nH]c3=O)cc2Cl)n[nH]c1=O [Compound 29] | > 50 |
| 6.15 | 0.0326 | N#Cc1nn(-c2ccc(Oc3cc(CC4CCCC4)c(=O)[nH]n3)c(Cl)c2)c(=O)[nH]c1=O [Compound 8] | > 50 |
|  | 1.52 | CC(C)Cc1cc(Oc2ccc(-n3nc(C#N)c(=O)[nH]c3=O)cc2Br)n[nH]c1=O [Compound 15] | > 50 |
| 2.59 | 0.465 | CC(C)(C)c1cc(Oc2c(Cl)cc(-c3nn[nH]n3)cc2Cl)n[nH]c1=O [Compound 50] | > 50 |
| 2.32 | 0.042 | CC(C)(C)Cc1cc(Oc2cc(Cl)c(-n3cc(C#N)c(=O)[nH]c3=O)cc2Cl)n[nH]c1=O [Compound 44] | > 50 |
| 1.4 | 0.81 | CC(C)(C)c1cc(Oc2ccc(-n3nc(C#N)c(=O)[nH]c3=O)cc2Cl)n[nH]c1=O [Compound 3] | > 50 |
| 8.68 | 0.723 | COc1cc(-n2nc(C#N)c(=O)[nH]c2=O)ccc1Oc1cc(CC2CCCC2)c(=O)[nH]n1 [Compound 12] | > 50 |
| 4.66 | 0.783 | N#Cc1nn(-c2cc(Cl)c(Oc3n[nH]c(=O)cc3C3CCCC3)c(Cl)c2)c(=O)[nH]c1=O [Compound 38] | > 50 |
| 50.8 | 1.4 | COc1cc(-n2nc(C#N)c(=O)[nH]c2=O)ccc1Oc1n[nH]c(=O)c(C)c1C [Compound 46] | > 50 |
| 5.11 | 0.0625 | COc1cc(-n2nc(C#N)c(=O)[nH]c2=O)ccc1Oc1cc(C(C)C)c(=O)[nH]n1 [Compound 31] | > 50 |

| EC50 (THRα) [µM] | EC50 (THRβ) [µM] | Compound | IC50 (L929 mouse fibroblasts) [µM] |
| --- | --- | --- | --- |
| 6.62 | 0.0403 | CC(C)(C)Cc1cc(Oc2c(Cl)cc(-n3cc(C#N)c(=O)[nH]c3=O)cc2Cl)n[nH]c1=O [Compound 43] | > 50 |
| 3.66 | 0.745 | CC(C)(C)c1cc(Oc2c(Cl)cc(-c3c[nH]c(=O)c(O)c3)cc2Cl)n[nH]c1=O [Compound 48] | > 50 |
| 2.55 | 0.0311 | CC(C)c1cc(Oc2ccc(-n3nc(C#N)c(=O)[nH]c3=O)cc2Br)n[nH]c1=O [Compound 27] | > 50 |
| 19.9 | 1.52 | COc1cc(-n2nc(C#N)c(=O)[nH]c2=O)ccc1Oc1cc(CC(C)(C)C)c(=O)[nH]n1 [Compound 21] | > 50 |
| 2.14 | 0.372 | N#Cc1nn(-c2cc(Cl)c(Oc3cc(CC4CCCC4)c(=O)[nH]n3)cc2Cl)c(=O)[nH]c1=O [Compound 11] | > 50 |
| > 60 | 1.9 | N#Cc1nn(-c2ccc(Oc3cc(CC4CCCC4)c(=O)[nH]n3)cc2)c(=O)[nH]c1=O [Compound 13] | > 50 |
| 0.001 | 3.22 | N#Cc1nn(-c2ccc(Oc3n[nH]c(=O)cc3C3CC3)c(Cl)c2)c(=O)[nH]c1=O [Compound 37] | > 50 |
| > 60 | 17.3 | CC(C)c1cc(Oc2ccc(-n3nc(C#N)c(=O)[nH]c3=O)c(Cl)c2)n[nH]c1=O [Compound 30] | > 50 |
| 0.014 | 2.7 | CC(C)c1cc(Oc2ccc(-n3nc(C#N)c(=O)[nH]c3=O)cc2F)n[nH]c1=O [Compound 25] | > 50 |
| 0.631 | 0.184 | Cc1c(Oc2c(Cl)cc(-n3nc(C#N)c(=O)[nH]c3=O)cc2Cl)n[nH]c(=O)c1C [Compound 22] | > 50 |
|  | > 60 | CC(C)(C)Cc1cc(Oc2ccc(-n3cc(C#N)c(=O)[nH]c3=O)c(Cl)c2)n[nH]c1=O [Compound 45] | > 50 |
| 18.5 | 0.279 | N#Cc1nn(-c2ccc(Oc3cc(C4CCCC4)c(=O)[nH]n3)c(F)c2)c(=O)[nH]c1=O [Compound 32] | > 50 |
| 3.22 | 0.583 | N#Cc1nn(-c2ccc(Oc3n[nH]c(=O)cc3C3CCCC3)c(Cl)c2)c(=O)[nH]c1=O [Compound 39] | > 50 |
| 11.8 | 0.0668 | CC(C)(C)Cc1cc(Oc2ccc(-n3nc(C#N)c(=O)[nH]c3=O)cc2Cl)n[nH]c1=O [Compound 19] | > 50 |
|  | 4.58 | CC(C)(C)Cc1cc(Oc2cc(Cl)c(-n3nc(C#N)c(=O)[nH]c3=O)cc2Cl)n[nH]c1=O [Compound 20] | > 50 |
| 4.59 | 0.776 | Cc1c(Oc2ccc(-n3nc(C#N)c(=O)[nH]c3=O)cc2F)n[nH]c(=O)c1C [Compound 23] | > 50 |
|  | 1.52 | N#Cc1nn(-c2ccc(Oc3cc(CC4CCCC4)c(=O)[nH]n3)cc2Cl)c(=O)[nH]c1=O [Compound 10] | > 50 |
|  | 7.55 | N#Cc1nn(-c2ccc(Oc3cc(C4CCCC4)c(=O)[nH]n3)cc2Cl)c(=O)[nH]c1=O [Compound 33] | > 50 |
